Reference: US20180251824A1, “IN VITRO GENOTOXICITY ASSAY USING A TRANSCRIPTOMIC BIOMARKER WITH DIRECT DIGITAL COUNTING” (GEORGETOWN UNIVERSITY, priority 2017, published 2018)
Entries after “also recorded” stand apart in the source; their conditions may differ.

Columns and labels:
[1] = test system: TGx-DDI biomarker genes in TK6 cells; assay: TGx-DDI transcriptomic biomarker classification by microarray; assay type: cell-based, human; conditions: for TGx-DDI classification, overall call (DDI if positive in any of 2DC, PCA, PA): TK6 cells, 4 h, single selected concentration; for TGx-DDI classification by 2DC and/or PCA: DDI branch in 2DC or negative PC1 = DDI; for TGx-DDI prediction by probability analysis (PA): DDI call based on p>0.9
Description: Microarray procedures: RNA samples from the concentration-setting experiments of each compound at their selected concentrations were pooled together and analyzed using human whole genome expression long-nucleotide probe microarrays (60 nucleotide long, Agilent Technologies) microarray (Li et al., 2015). […] Each experiment was run on two arrays, and on each array both treated and reference (vehicle control) samples were hybridized in a dye-swap design. Specifically, the reference and treatment samples were labeled with two different fluorescence dyes, Cy3 and Cy5, and then both samples were hybridized onto one array. To reduce the effects associated with different labeling efficiencies, a two-color dye-swapping configuration was used. The results from these two arrays were combined for statistical analysis.
TGx-DDI transcriptomic biomarker evaluation: Following the dose determination, microarray analysis was performed for each test compound. RNAs from three replicates in the concentration-setting experiment were pooled together and used for microarray analysis. Cisplatin and ionizing radiation were used in parallel during each experiment as positive controls and to assess batch variation. The TGx-DDI transcriptomic biomarker panel was used to classify each chemical as DDI or non-DDI using two-dimensional clustering (2DC), principal component analysis (PCA), and probability analysis (PA). Hierarchical clustering and PCA were used as an initial unsupervised method to explore the data.
The TGx-DDI heatmap for chemicals in all five classes. PA, PCA, and 2DC results using the TGx-DDI biomarker for validation chemicals were generated. In order to decrease the probability of false negatives, a three-pronged approach was used. A chemical was classified as DDI if it gave a positive call in any one of the TGx-DDI biomarker analyses described in the paragraph above (2DC, PCA or PA prediction).

[2] = test system: ATF3, CDKN1A and GADD45A expression in TK6 cells; assay: qRT-PCR indicator stress gene panel, dose optimization; assay type: cell-based, human; conditions: for transcriptional response of the indicator genes at a later time point: later than the 4 h time point
Procedure: Dose optimization: For some assays, a sufficient concentration of the test agent is required to trigger a measureable transcriptional response; such concentrations may differ from other toxicological endpoints. Therefore, to determine an appropriate concentration for transcriptomics profiling, a dose-range finder experiment was performed for all test compounds as described in Li et al. (2015). Six concentrations of each agent were used for assessment of mRNA changes in three indicator genes (ATF 3, CDKNIA, and GADD45A) by qRT-PCR. The concentration for each agent showing the strongest induction of the indicator genes was then selected. In addition, concordance of responses in the indicator genes was confirmed prior to pooling samples for microarray analysis. If none of the indicator genes were induced in concentration-setting experiments, the IC50 was selected for the microarray analysis. The IC50 value was determined using a standard MTT assay at 24 hr using 10 concentrations and 3 replicates. Based on this cytotoxicity assay, the selected concentrations for microarray analysis were not overtly cytotoxic for any test agent (FIG. 2). If there was neither cytotoxicity nor induction of expression changes in the gene panel, a concentration of 1 mM was used for microarray analysis, as per the revised ICHS2(R1) guidance on genotoxicity testing of pharmaceuticals (ICHS2(R1) (2012) Guidance for Industry: S2(R1) Genotoxicity testing and data interpretation for pharmaceuticals intended for human use. US Department of Health and Human Services, Food and Drug Administration http://www.ich.org/fileadmin/Public_Web_Site/ICH_Products/Guidelines/Safety/S2_R1/Step4/S2R1_Step4.pdf). Selection of a single concentration and pooling replicate samples for microarray analysis (described below) is specific to biomarker development and validation, where multiple compounds were used in each class; future application in substance testing should be undertaken using a dose-response design with samples in triplicate (Buick et al., 2017).

[3] = test system: TGx-DDI biomarker genes in TK6 cells; assay: TGx-DDI nCounter assay (direct digital counting); conditions: 100 ng total RNA, same samples as microarray; 2DC, PCA, PA
Procedure: Briefly, exponentially growing cells were treated with the indicated chemical agent for 4 h over a broad dose range, cells were harvested, and total RNA was isolated. […] For cell viability assays, at the end of 4 hr treatment, medium was removed from cells, and cells were washed and recovered in fresh medium for 20 hr. Cell viability was measured at the end of recovery period using an MTT Assay kit (Cayman Chemical, Ann Arbor, Mich.).
TGx-DDI nCounter Assay: The nCounter™ assay was performed on 100 ng of RNA that had previously been pooled and used in microarray analysis. […] In brief, optimized sequences for genes in the TGx-DDI panel were custom-designed and manufactured by NanoString. The CodeSet includes the TGx-DDI gene-set and eight housekeeping genes. Housekeeping genes were selected based on stability and detectable expression levels, including G6PD, GUSB, HPRT1, LDHA, NONO, PGK1, PPIH, and TFRC.
To validate the sensitivity and specificity of DDI prediction by TGx-DDI nCounter assay, 38 out of 45 testing compounds, including Class 1, 2, 4 and 5, were evaluated using nCounter technology. nCounter assays were performed on 100 ng of total RNA, the same RNA samples that were used in microarray analysis. Following the categorization guideline described already for microarrays, compounds were classified as DDI or non-DDI based on nCounter assay data.

TK6 cells = assay: MTT cell viability assay; assay type: cell-based, human; conditions: selected concentration, 4 hr treatment plus 20 hr recovery
Procedure: Dose optimization: For some assays, a sufficient concentration of the test agent is required to trigger a measureable transcriptional response; such concentrations may differ from other toxicological endpoints. Therefore, to determine an appropriate concentration for transcriptomics profiling, a dose-range finder experiment was performed for all test compounds as described in Li et al. (2015). Six concentrations of each agent were used for assessment of mRNA changes in three indicator genes (ATF 3, CDKNIA, and GADD45A) by qRT-PCR. The concentration for each agent showing the strongest induction of the indicator genes was then selected. In addition, concordance of responses in the indicator genes was confirmed prior to pooling samples for microarray analysis. If none of the indicator genes were induced in concentration-setting experiments, the IC50 was selected for the microarray analysis. The IC50 value was determined using a standard MTT assay at 24 hr using 10 concentrations and 3 replicates. Based on this cytotoxicity assay, the selected concentrations for microarray analysis were not overtly cytotoxic for any test agent (FIG. 2). Based on this cytotoxicity assay, the selected doses for microarray analysis were not overtly cytotoxic. […]

O=c1[nH]cc(F)c(=O)[nH]1 [5-FU]
TGx-DDI classification, overall call (DDI if positive in any of 2DC, PCA, PA) [1]: DDI

CCCN(CCc1cccs1)[C@H]1CCc2c(O)cccc2C1 [rotigotin]
induction of indicator genes ATF3, CDKN1A, GADD45A ([2]; TK6 cells, 4 h treatment, selected or tested concentrations): did not induce any of the indicator genes

Nc1ncn([C@@H]2O[C@H](CO)[C@@H](O)[C@H]2O)c(=O)n1 [5-azacytidine]
transcriptional response of the indicator genes at a later time point [2]: stronger transcriptional response | TGx-DDI classification, overall call (DDI if positive in any of 2DC, PCA, PA) [1]: non-DDI

COS(C)(=O)=O [MMS]
clustering by 2DC using the TGx-DDI biomarker ([1]; reproducibility check with training-set agents, selected concentration): clustered with the genotoxic agents

Oc1ccc(O)cc1 [hydroquinone]
TGx-DDI classification by 2DC and/or PCA [1]: DDI agents; also recorded: positive | TGx-DDI prediction by probability analysis (PA) [1]: non-DDI | TGx-DDI classification by nCounter [3]: consistency among three classification methods

CS(=O)(=O)OCCCCOS(C)(=O)=O [busulfan]
GADD45A induction relative to vehicle-treated control cells ([2]; TK6 cells, 4 h treatment, selected concentration): at least 2 fold | induction of stress genes at higher concentrations ([2]; concentrations above the selected one): did not cause greater induction | TGx-DDI classification by 2DC and/or PCA [1]: DDI agents; also recorded: positive | TGx-DDI prediction by probability analysis (PA) [1]: non-DDI | TGx-DDI classification by nCounter [3]: consistency among three classification methods

bleomycin
decline (reduction) in cell viability at 24 hr (TK6 cells): 80%

Cc1nc(Nc2ncc(C(=O)Nc3c(C)cccc3Cl)s2)cc(N2CCN(CCO)CC2)n1 [dasatanib]
TGx-DDI classification, overall call (DDI if positive in any of 2DC, PCA, PA) [1]: genotoxic calls

CC/C(=C(/CC)c1ccc(O)cc1)c1ccc(O)cc1 [diethylstilbestrol]
TGx-DDI classification by 2DC and/or PCA [1]: positive | TGx-DDI prediction by probability analysis (PA) [1]: non-DDI | TGx-DDI classification, overall call (DDI if positive in any of 2DC, PCA, PA) [1]: genotoxic calls

Nc1nc2[nH]cnc2c(=S)[nH]1 [6-TG]
TGx-DDI classification, overall call (DDI if positive in any of 2DC, PCA, PA) [1]: DDI

Sc1ncnc2nc[nH]c12 [6-mercaptopurine]
transcriptional response of the indicator genes at a later time point [2]: stronger transcriptional response | TGx-DDI classification, overall call (DDI if positive in any of 2DC, PCA, PA) [1]: non-DDI

CCn1cc(C(=O)O)c(=O)c2cc(F)c(N3CCNCC3)cc21 [norfloxacin]
TGx-DDI classification, overall call (DDI if positive in any of 2DC, PCA, PA) [1]: non-DDI
